Measured values taken from patent publication US20190256827A1, “EPIGENOME EDITING SYSTEMS AND METHODS” (STC.UNM, priority 2017, published 2019).

Key:
Type in all cases: cell-based, human
[1] = system: IL1RN mRNA in HEK293T cells; assay: qPCR of IL1RN mRNA levels (dCas9-PYL-HA, FLAG-ABI-P300, sgRNAs)
Protocol: To study how IL1RN expression levels change, total RNAs from the cell lysates generated in the above experiment were purified and then subjected to qPCR analysis to quantify mRNA levels.
Human embryonic kidney cell HEK293T (American Type Culture Collection, Manassas, Va.) was cultured in Dulbecco's modified Eagle's medium (DMEM) (Gibco) with 10% FBS (Atlanta Biologicals), 1× GlutaMax (Gibco, Thermo Fisher Scientific, Inc., Waltham, Mass.), and 1× penicillin/streptomycin (Pen/Strep; Gibco, Thermo Fisher Scientific, Inc., Waltham, Mass.). Cells (100,000/ml) were plated in 24-well or 10-cm cell culture plate the day before transfection. For each well of 24-well plate transfection, 500 ng of dCas9-PYL-HA, 420 ng of FLAG-ABI-P300, and a total amount of 200-ng mix of gRNAs, with a 50-ng per each gRNA, were mixed with 50×(v/w) Opti-MEM (Gibco, Thermo Fisher Scientific, Inc., Waltham, Mass.), then incubate with the same volume of 3 μg PEI-Opti-MEM solution for 20 minutes at room temperature. Then, 100 μL of PEI-combined plasmids were added to every single well of 24-well plate and cultured for 24 hours before experiments were performed. For a 10 cm plate, 1 mL of PEI-combined plasmids were needed. After six hours transfection, cells were washed and incubated for another 1-72 hours before experiments were performed.
Total RNA was extracted using the EZNA Total RNA Kit I (Omega Bio-tek, Inc., Norcross, Ga.). qPCR reactions were performed on cDNA prepared from 1,000 ng of total cellular RNA using the High-Capacity cDNA Reverse Transcription Kit (Applied Biosystems Co., Thermo Fisher Scientific, Inc., Foster City, Calif.). TaqMan qPCR probes (Thermo Fisher Scientific, Inc., Waltham, Mass. IL1RN, Hs00893626; GRM2, Hs00968358; HBA, Hs00361191; MYOD1 Hs02330075; GAPDH, Hs99999905) and Fast Advanced Master Mix (Life Technologies Co., Co., Thermo Fisher Scientific, Inc., Carlsbad, Calif.) were used in multiplexed reactions and 384-well format in a 7900HT Fast Real-Time PCR System (Applied Biosystems Co., Thermo Fisher Scientific, Inc., Foster City, Calif.). All measurements were performed at least in triplicate. Data were analyzed using the SDS software, version 2.4 (Applied Biosystems Co., Thermo Fisher Scientific, Inc., Foster City, Calif.), by the ΔΔCt method: the Ct values of target gene were normalized to Ct values of GAPDH, the folds of target gene expression changes were normalized to experimental controls. Analyzed data are reported as the mean±s.e.m. for biological replicates. In ChIP assays, the Ct values of antibodies pulled down segments were normalized to the Ct values of 10% input.

[2] = system: TIR1*/AID dimerization, inducible EGFP reporter in HEK293T cells; assay: IAA-inducible EGFP transcriptional activation assay (GAL4DBD-TIR1* or GAL4DBD-TIR1^WT with VP16AD-AID); settings: with or without IAA for 24 hours
Excerpt: Based on sequence alignment analysis against Arabidopsis thaliana TIR1, a mutant form of Oryza sativa TIR1 (TIR1*) was engineered. TIR1* contained a double mutation, where glutamic acid residues at position 7 and position 10 were replaced with lysine residues (YFPEKVVKHIFSFL, SEQ ID NO:125) that inhibited the ability of TIR* to interact with the SCF complex. To test if TIR1* indeed no longer mediated IAA-induced degradation, but would still bind to AID in the presence of IAA, an IAA-inducible EGFP transcriptional activation assay was constructed. In this assay, EGFP would only be expressed when a functional transcriptional activator was reconstituted by IAA from the two split halves (a DNA binding domain, DBD, and an activation domain, AD, each linked to an IAA-dimerizable protein, TIR* and AID). DNA constructs were made that encoded fusion proteins of GAL4DBD-TIR1*, GAL4DBD-TIR1^WT (the mutant (TIR*) and the wild type TIR1 (TIR1^WT) fused to DBD from GAL4, respectively) and VP16AD-AID (AID fused to VP16 AD). If the AID fusion protein was degraded or the dimerization of TIR1 and AID was disrupted, no EGFP expression would occur. Either GAL4DBD-TIR1* or GAL4DBD-TIR1^WT was co-transfected with VP16AD-AID and an inducible EGFP reporter construct that contains 5×GALDBD binding sites into HEK293T cells with or without the addition of IAA for 24 hours.

[3] = system: GAL4DBD-TIR1*/VP16AD-AID, inducible luciferase reporter in HEK293T cells; assay: Inducible luciferase reporter assay, IAA-responsive system (orthogonality and reversibility)
Protocol: To ensure that IAA and ABA could be used to independently control two histone modification editing events, the orthogonality between these two systems was tested. HEK293T cells were co-transfected with either GAL4DBD-TIR1*/VP16AD-AID (responsive to IAA) or GAL4DBD-ABI/VP16AD-PYL (responsive to ABA), and an inducible luciferase reporter construct. This was followed by treating cells with either IAA or ABA (or DMSO as a control) for 24 hours. […] To test the reversibility of IAA-induced dimerization, in which it was critical to achieve precise temporal control, HEK293T cells were co-transfected with GAL4DBD-TIR1*, VP16AD-AID, and an inducible luciferase expression construct, and then treated cells with 50 μM IAA for 24 hours. Cells were then washed with fresh media without IAA to remove the inducer (or no washing as a control). They were then harvested for luciferase assays after washing.

| SMILES | IL1RN mRNA expression with caged ABA, no UV light ([1]; 20 μM ABA-DMNB, not irradiated, vs DMSO) | IL1RN mRNA levels after uncaging by UV light ([1]; ABA-DMNB uncaged by exposure to UV light) | expression of EGFP [2] | reversibility of IAA-induced luciferase expression after washing ([3]; 50 μM IAA for 24 hours, then washed with fresh media without IAA) | luciferase expression, IAA-responsive system ([3]; treated with IAA or ABA or DMSO for 24 hours) |
| --- | --- | --- | --- | --- | --- |
| COc1cc(COC(=O)/C=C(C)\C=C\[C@@]2(O)C(C)=CC(=O)CC2(C)C)c([N+](=O)[O-])cc1OC [ABA-DMNB] | at levels of negative control (DMSO) | mRNA levels increased | – | – | – |
| O=C(O)Cc1c[nH]c2ccccc12 [IAA, indole-3-acetic acid] | – | – | Only the combination of the TIR1 mutant TIR* and the IAA addition induced the expression of EGFP | readily reversible | Only the proper combination of inducer with corresponding binding proteins could induce luciferase expression |
